Test results published in PubChem BioAssay AID260 (DTP/NCI, 2004).
Values joined by “and” are separate entries in the source; they are usually repeats but may differ in a detail not shown here. Equal entries are not always repeated. Inconclusive results and toxic doses are left out.

System: CD2F1 mice, intracerebral L1210 leukemia, survival T/C
Experiment: NCI In Vivo Anticancer Drug Screen. Data for tumor model L1210 Leukemia (intracerebral) in CD2F1 (CDF1) mice
Conditions: higher = longer survival
Experimental: The antitumor activity of compounds was measured in mice bearing transplantable tumors. Survival or tumor size were measured and the results are expressed as the measurement made in the treated group (T) divided by the measurement made in the vehicle treated control group (C). The tumor model used in this assay is L1210 Leukemia (intracerebral) in CD2F1 (CDF1) mice

[1] = endpoint: median survival time, dose: 80.0 mg/kg/injection, schedule: Q01DX001 (ip), vehicle: saline
[2] = endpoint: mean survival time, dose: 2.0 mg/kg/injection, schedule: Q01DX009 (ip), vehicle: saline
[3] = endpoint: mean survival time, dose: 4.0 mg/kg/injection, schedule: Q01DX009 (ip), vehicle: saline
[4] = endpoint: median survival time, dose: 16.0 mg/kg/injection, schedule: Q01DX005 (ip), vehicle: saline with Tween-80
[5] = endpoint: median survival time, dose: 32.0 mg/kg/injection, schedule: Q01DX005 (ip), vehicle: saline with Tween-80
[6] = endpoint: median survival time, dose: 128.0 mg/kg/injection, schedule: Q01DX005 (ip), vehicle: saline with Tween-80

CN(N=O)C(N)=O
T/C (endpoint: median survival time, dose: 0.5 mg/kg/injection, schedule: Q01DX009 (ip), vehicle: saline + alcohol): 98 % of control | T/C (endpoint: median survival time, dose: 1.0 mg/kg/injection, schedule: Q01DX009 (ip), vehicle: saline + alcohol): 105 % of control | T/C (endpoint: median survival time, dose: 2.0 mg/kg/injection, schedule: Q01DX009 (ip), vehicle: saline + alcohol): 105 % of control | T/C (endpoint: median survival time, dose: 2.5 mg/kg/injection, schedule: Q01DX001 (ip), vehicle: saline): 89 % of control | T/C (endpoint: median survival time, dose: 4.0 mg/kg/injection, schedule: Q01DX009 (ip), vehicle: saline + alcohol): 114 % of control | T/C (endpoint: median survival time, dose: 5.0 mg/kg/injection, schedule: Q01DX001 (ip), vehicle: saline): 92 % of control | T/C (endpoint: median survival time, dose: 10.0 mg/kg/injection, schedule: Q01DX001 (ip), vehicle: saline + alcohol): 102 % of control | T/C (endpoint: median survival time, dose: 10.0 mg/kg/injection, schedule: Q01DX001 (ip), vehicle: saline): 94 % of control | T/C (endpoint: median survival time, dose: 16.0 mg/kg/injection, schedule: Q01DX009 (ip), vehicle: saline + alcohol): 196 % of control | T/C (endpoint: median survival time, dose: 20.0 mg/kg/injection, schedule: Q01DX001 (ip), vehicle: saline + alcohol): 105 % of control | T/C (endpoint: median survival time, dose: 20.0 mg/kg/injection, schedule: Q01DX001 (ip), vehicle: saline): 103 % of control | T/C (endpoint: median survival time, dose: 40.0 mg/kg/injection, schedule: Q01DX001 (ip), vehicle: saline + alcohol): 107 % of control | T/C (endpoint: median survival time, dose: 40.0 mg/kg/injection, schedule: Q01DX001 (ip), vehicle: saline): 121 % of control | T/C (endpoint: median survival time, dose: 80.0 mg/kg/injection, schedule: Q01DX001 (ip), vehicle: saline + alcohol): 112 % of control | T/C [1]: 110 % of control

CN(C)CC(=O)c1ccc(O)c(O)c1
T/C (endpoint: median survival time, dose: 100.0 mg/kg/injection, schedule: Q01DX005 (ip), vehicle: saline): 95 % of control and 107 % of control | T/C (endpoint: median survival time, dose: 200.0 mg/kg/injection, schedule: Q01DX005 (ip), vehicle: saline): 109 % of control | T/C (endpoint: median survival time, dose: 400.0 mg/kg/injection, schedule: Q01DX005 (ip), vehicle: saline): 290 % of control and 103 % of control | T/C (endpoint: median survival time, dose: 800.0 mg/kg/injection, schedule: Q01DX005 (ip), vehicle: saline): 88 % of control and 110 % of control

CC(=O)c1ccc(N=NN(C)C)cc1
T/C (endpoint: mean survival time, dose: 5.0 mg/kg/injection, schedule: Q01DX007 (ip), vehicle: other): 107 % of control | T/C (endpoint: mean survival time, dose: 10.0 mg/kg/injection, schedule: Q01DX007 (ip), vehicle: other): 89 % of control | T/C (endpoint: mean survival time, dose: 20.0 mg/kg/injection, schedule: Q01DX007 (ip), vehicle: other): 97 % of control | T/C (endpoint: mean survival time, dose: 40.0 mg/kg/injection, schedule: Q01DX007 (ip), vehicle: other): 103 % of control | T/C (endpoint: mean survival time, dose: 60.0 mg/kg/injection, schedule: Q01DX007 (ip), vehicle: other): 93 % of control

COS(C)(=O)=O
T/C (endpoint: median survival time, dose: 16.0 mg/kg/injection, schedule: Q01DX005 (ip), vehicle: saline): 107 % of control and 108 % of control | T/C (endpoint: median survival time, dose: 32.0 mg/kg/injection, schedule: Q01DX005 (ip), vehicle: saline): 120 % of control | T/C (endpoint: median survival time, dose: 64.0 mg/kg/injection, schedule: Q01DX005 (ip), vehicle: saline): 113 % of control | T/C (endpoint: median survival time, dose: 128.0 mg/kg/injection, schedule: Q01DX005 (ip), vehicle: saline): 107 % of control and 111 % of control

CC[n+]1ccc(Nc2ccc(NC(=O)c3ccc(Nc4cc[n+](CC)c5ccc(N)cc45)cc3)cc2)cc1
T/C [2]: 110 % of control | T/C [3]: 111 % of control

CCC(C)N(C)/N=N/c1nc[nH]c1C(N)=O (stereo not drawn)
T/C [4]: 105 % of control | T/C [5]: 105 % of control | T/C (endpoint: median survival time, dose: 64.0 mg/kg/injection, schedule: Q01DX005 (ip), vehicle: saline with Tween-80): 116 % of control | T/C [6]: 116 % of control

CC(C)=CCC1=C(O)c2ccccc2C(=O)C1=O
T/C (endpoint: median survival time, dose: 32.0 mg/kg/injection, schedule: Q01DX005 (ip), vehicle: Klucel (hydroxypropylcellulose) (HPC)): 96 % of control and 100 % of control | T/C (endpoint: median survival time, dose: 64.0 mg/kg/injection, schedule: Q01DX005 (ip), vehicle: Klucel (hydroxypropylcellulose) (HPC)): 97 % of control and 102 % of control | T/C (endpoint: median survival time, dose: 128.0 mg/kg/injection, schedule: Q01DX005 (ip), vehicle: Klucel (hydroxypropylcellulose) (HPC)): 92 % of control and 93 % of control | T/C (endpoint: median survival time, dose: 256.0 mg/kg/injection, schedule: Q01DX005 (ip), vehicle: Klucel (hydroxypropylcellulose) (HPC)): 96 % of control and 105 % of control

Nc1nc(=S)c2ncn(C3CC(O)C(CO)O3)c2[nH]1 (stereo not drawn)
T/C (endpoint: mean survival time, dose: 2.5 mg/kg/injection, schedule: Q01DX001 (ip), vehicle: steriod suspending solution): 114 % of control | T/C (endpoint: mean survival time, dose: 10.0 mg/kg/injection, schedule: Q01DX001 (ip), vehicle: steriod suspending solution): 118 % of control | T/C (endpoint: mean survival time, dose: 20.0 mg/kg/injection, schedule: Q01DX001 (ip), vehicle: steriod suspending solution): 120 % of control

COc1ccc(CC2C(=O)NC(C)C(=O)N(C)C3C(=O)N(C)C(Cc4ccc(O)c(c4)Oc4ccc(cc4)C3O)C(=O)NC(C)C(=O)NC(C)C(=O)N2C)cc1 (stereo not drawn)
T/C (endpoint: median survival time, dose: 0.12 mg/kg/injection, schedule: Q01DX009 (ip), vehicle: Klucel (hydroxypropylcellulose) (HPC)): 101 % of control | T/C (endpoint: median survival time, dose: 0.13 mg/kg/injection, schedule: Q01DX009 (ip), vehicle: saline): 93 % of control and 117 % of control | T/C (endpoint: median survival time, dose: 0.25 mg/kg/injection, schedule: Q01DX009 (ip), vehicle: Klucel (hydroxypropylcellulose) (HPC)): 93 % of control and 101 % of control | T/C (endpoint: median survival time, dose: 0.25 mg/kg/injection, schedule: Q01DX009 (ip), vehicle: saline): 124 % of control and 91 % of control | T/C (endpoint: median survival time, dose: 0.5 mg/kg/injection, schedule: Q01DX009 (ip), vehicle: Klucel (hydroxypropylcellulose) (HPC)): 98 % of control and 100 % of control | T/C (endpoint: median survival time, dose: 0.5 mg/kg/injection, schedule: Q01DX009 (ip), vehicle: saline): 124 % of control and 111 % of control | T/C (endpoint: median survival time, dose: 1.0 mg/kg/injection, schedule: Q01DX009 (ip), vehicle: Klucel (hydroxypropylcellulose) (HPC)): 97 % of control and 100 % of control | T/C (endpoint: median survival time, dose: 1.0 mg/kg/injection, schedule: Q01DX009 (ip), vehicle: saline): 104 % of control and 107 % of control | T/C (endpoint: median survival time, dose: 2.0 mg/kg/injection, schedule: Q01DX009 (ip), vehicle: saline): 109 % of control and 111 % of control

COC(=O)C(Cc1ccc(N(CCCl)CCCl)cc1)N=NNc1nc[nH]c1C(N)=O (stereo not drawn)
T/C (endpoint: median survival time, dose: 8.0 mg/kg/injection, schedule: Q01DX005 (ip), vehicle: saline with Tween-80): 95 % of control | T/C [4]: 115 % of control | T/C [5]: 95 % of control

CS(C)=O
T/C (endpoint: median survival time, dose: 1000.0 mg/kg/injection, schedule: Q01DX005 (ip), vehicle: saline): 101 % of control and 106 % of control | T/C (endpoint: median survival time, dose: 1.5 grams/kg/injection, schedule: Q01DX009 (ip), vehicle: saline): 104 % of control | T/C (endpoint: median survival time, dose: 2000.0 mg/kg/injection, schedule: Q01DX005 (ip), vehicle: saline): 98 % of control and 102 % of control | T/C (endpoint: median survival time, dose: 3.0 grams/kg/injection, schedule: Q01DX009 (ip), vehicle: saline): 102 % of control | T/C (endpoint: median survival time, dose: 4000.0 mg/kg/injection, schedule: Q01DX005 (ip), vehicle: saline): 98 % of control and 102 % of control | T/C (endpoint: median survival time, dose: 6.0 grams/kg/injection, schedule: Q01DX009 (ip), vehicle: saline): 104 % of control and 107 % of control | T/C (endpoint: median survival time, dose: 8000.0 mg/kg/injection, schedule: Q01DX005 (ip), vehicle: saline): 118 % of control and 107 % of control

CN(C)/N=N/c1[nH]ncc1C(N)=O
T/C [5]: 112 % of control | T/C [6]: 122 % of control | T/C (endpoint: median survival time, dose: 256.0 mg/kg/injection, schedule: Q01DX005 (ip), vehicle: saline with Tween-80): 114 % of control

CN(C)P1(=O)NCCCO1 (stereo not drawn)
T/C [1]: 91 % of control | T/C (endpoint: median survival time, dose: 160.0 mg/kg/injection, schedule: Q01DX001 (ip), vehicle: saline): 90 % of control | T/C (endpoint: median survival time, dose: 320.0 mg/kg/injection, schedule: Q01DX001 (ip), vehicle: saline): 92 % of control | T/C (endpoint: median survival time, dose: 640.0 mg/kg/injection, schedule: Q01DX001 (ip), vehicle: saline): 95 % of control | T/C (endpoint: median survival time, dose: 1280.0 mg/kg/injection, schedule: Q01DX001 (ip), vehicle: saline): 91 % of control

C[n+]1ccc(Nc2ccc(NC(=O)c3ccc(Nc4cc[n+](C)c5ccc(N)cc45)cc3N)cc2)cc1
T/C (endpoint: mean survival time, dose: 1.0 mg/kg/injection, schedule: Q01DX009 (ip), vehicle: saline): 103 % of control | T/C [2]: 117 % of control | T/C [3]: 119 % of control | T/C (endpoint: mean survival time, dose: 8.0 mg/kg/injection, schedule: Q01DX009 (ip), vehicle: saline): 120 % of control | T/C (endpoint: mean survival time, dose: 16.0 mg/kg/injection, schedule: Q01DX009 (ip), vehicle: saline): 123 % of control
